Laboratory results as given in patent publication US6531446B1, “Peptides having biological activity” (Korea Advanced Institute of Science and Technology, priority 1998, dated 2003).
Where two headings read alike, the source gives them in different places. No end group written: not given here.

Key:
Format in all cases: cell-based
Psudomonas putida = experiment: Minimal inhibitory concentration, 96-well broth dilution; conditions: Gram-negative; second part of Table 2
Procedure: (§1) By using the peptides as in Example 1, the minimal inhibitory concentration of the peptides were determined against a variety of microorganisms. Bacteria and fungi were incubated overnight in Mller-Hinton and Saboraud media, respectively, at 37 and 30° C., respectively, and were inoculated in media for 2 hours to a midlogarithmic phase. After diluting the bacteria and fungi to 10^4-10^5 per 1 ml, they were inoculated into a 96-well plate containing serially diluted peptides and incubated for additional 18 hours. The minimal inhibitory concentration was determined at a concentration that inhibits the growth of the microorganisms by measuring the absorbance.

Staphylococcus aureus = system: Staphylococcus aureus
Procedure: as §1

Cryptococcus neoformans = system: Cryptococcus neoformans
Procedure: as §1

Serratia sp. = system: Serratia sp.
Procedure: as §1

Bacillus subtilis = system: Bacillus subtilis
Procedure: as §1

Salmonella typhimurium = system: Salmonella typhimurium
Procedure: as §1

Streptococcus pneumoniae = system: Streptococcus pneumoniae
Procedure: as §1

Candida albicans = system: Candida albicans
Procedure: as §1

Escherichia coli = system: Escherichia coli
Procedure: as §1

Streptococcus mutans = system: Streptococcus mutans
Procedure: as §1

Saccharomyces cerevisiae = system: Saccharomyces cerevisiae
Procedure: as §1

[1] = system: a variety of microorganisms; experiment: Estimation of antimicrobial activity, overall statement in words; conditions: result in words
Procedure: as §1

[2] = Gram-positive, second part of Table 2
[3] = Gram-negative, second part of Table 2

| Substance | Minimal Inhibitory Concentrations (Psudomonas putida) [μg/m] | Minimal Inhibitory Concentrations (Staphylococcus aureus; [2]) [μg/m] | Minimal Inhibitory Concentrations (Cryptococcus neoformans; Fungi, second part of Table 2) [μg/m] | Minimal Inhibitory Concentrations (Serratia sp.; [3]) [μg/m] | Minimal Inhibitory Concentrations (Bacillus subtilis; [2]) [μg/m] | Minimal Inhibitory Concentrations (Salmonella typhimurium; [3]) [μg/m] | Minimal Inhibitory Concentrations (Streptococcus pneumoniae; [2]) [μg/m] | Minimal Inhibitory Concentrations (Candida albicans; Fungi, second part of Table 2) [μg/m] | Minimal Inhibitory Concentrations (Escherichia coli; [3]) [μg/m] | Minimal Inhibitory Concentrations (Streptococcus mutans; [2]) [μg/m] | Minimal Inhibitory Concentrations (Saccharomyces cerevisiae; Fungi, second part of Table 2) [μg/m] | antimicrobial activity [1] | also measured |
| --- | --- | --- | --- | --- | --- | --- | --- | --- | --- | --- | --- | --- | --- |
| Arg Ala Gly Leu Gln Phe Pro Val Gly Arg Val His Arg Leu Leu Arg Lys-NH2 (RAGLQFPVGRVHRLLRK-NH2) [Seq No. 16] | 2 | 1 | 1 | 1 | 1 | 2 | 1 | 2 | 2 | 0.5 | 2 | – | – |
| PVGRVHRLLRK [Seq No. 7] | – | – | – | – | – | – | – | – | – | – | – | strong antimicrobial activity | Minimal Inhibitory Concentrations (Staphylococcus aureus; 18 h): 50 µg/mL; Minimal Inhibitory Concentrations (Cryptococcus neoformans; 18 h): 50 µg/mL; Minimal Inhibitory Concentrations (Serratia sp.; 18 h): 25 µg/mL; Minimal Inhibitory Concentrations (Bacillus subtilis; 18 h): 25 µg/mL; Minimal Inhibitory Concentrations (Salmonella typhimurium; murium, 18 h): 50 µg/mL; Minimal Inhibitory Concentrations (Streptococcus pneumoniae; 18 h): 50 µg/mL; Minimal Inhibitory Concentrations (Candida albicans; 18 h): 50 µg/mL; Minimal Inhibitory Concentrations (Escherichia coli; 18 h): 25 µg/mL; Minimal Inhibitory Concentrations (Streptococcus mutans; 18 h): 25 µg/mL; Minimal Inhibitory Concentrations (Saccharomyces cerevisiae; 18 h): 50 µg/mL |
| RAGLQFPVGRLLR [Buf(5-13)[RLLR]] | 32 | 64 | 32 | 32 | 32 | 16 | 32 | 32 | 32 | 16 | 32 | – | – |
| RAGLQFPVGRLLRRLLR [Buf(5-13)[RLLR]2] | 16 | 8 | 4 | 8 | 4 | 4 | 8 | 4 | 8 | 16 | 8 | – | – |
| RAGLQFPVGRLLRRLLRRLLR [Seq No. 15] | 1 | 1 | 1 | 1 | 1 | 1 | 1 | 2 | 1 | 0.5 | 4 | especially potent antimicrobial activity | – |
| RKGLQKLVGRVHRLLRK [Seq No. 12] | 36 | 18 | 8 | 4 | 18 | 18 | 18 | 16 | 18 | 36 | 4 | – | – |
| RLLRRLLRRLLR [(RLLR)3] | 16 | 16 | 32 | 16 | 16 | 16 | 16 | 32 | 32 | 16 | 32 | – | – |
| RLLRRLLRRLLRRLLR [(RLLR)4] | 2 | 1 | 8 | 1 | 2 | 2 | 2 | 8 | 2 | 2 | 8 | strong antimicrobial activities | – |
| RLLRRLLRRLLRRLLRRLLR [Seq No. 13] | 2 | 1 | 8 | 1 | 2 | 2 | 2 | 8 | 2 | 2 | 8 | strong antimicrobial activities | – |
| RVHRLLRRVHRLLRRVHRLLR [Seq No. 14] | 50 | 50 | 100 | 3 | 6 | 50 | 100 | >200 | 100 | 25 | >200 | – | – |
